# Results as given in patent US20240398828A1, “HETERO-ATOM CONTAINING COMPOUNDS AND USES THEREOF” (Kumquat Biosciences Inc., priority 2021, published 2024).
# Columns and labels:
# [1] = target: T1, PTPN2 (i.e., TC-PTP) (Homo sapiens, UniProt P17706); assay: Phosphatase activity assay (DiFMUP substrate), PTPN2; assay type: biochemical; details: compounds binned ≤1 uM or >1 uM
# T1 sequence (P17706 1-415): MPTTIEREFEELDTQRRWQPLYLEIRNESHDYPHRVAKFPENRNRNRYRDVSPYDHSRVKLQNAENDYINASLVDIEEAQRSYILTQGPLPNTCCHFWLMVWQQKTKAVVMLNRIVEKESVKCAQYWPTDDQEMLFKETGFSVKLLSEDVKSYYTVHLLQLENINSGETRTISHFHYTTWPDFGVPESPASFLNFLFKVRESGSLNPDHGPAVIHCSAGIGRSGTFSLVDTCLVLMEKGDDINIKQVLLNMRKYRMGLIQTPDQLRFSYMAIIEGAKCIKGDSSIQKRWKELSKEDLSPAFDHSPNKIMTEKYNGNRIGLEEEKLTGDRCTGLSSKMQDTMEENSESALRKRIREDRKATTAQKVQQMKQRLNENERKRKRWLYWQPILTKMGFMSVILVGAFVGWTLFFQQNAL
# Procedure, shortened: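 First, serially diluted inhibitor is mixed about 2 minutes with enzyme in pH 7.5 HEPES/NaCl/EDTA/DTT/Tween-20 buffer. Next, DiFMUP is added at the enzyme's Km, approximately 45 μM for PTPN2. Finally, DiFMU appearance is read continuously at room temperature and rates are fitted for IC50.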
# [2] = target: T2, PTPN1 (i.e., PTP1B) (Homo sapiens, UniProt P18031); assay: Phosphatase activity assay (DiFMUP substrate), PTP1B; assay type: biochemical; details: compounds binned ≤1 uM or >1 uM
# T2 sequence (P18031 1-435): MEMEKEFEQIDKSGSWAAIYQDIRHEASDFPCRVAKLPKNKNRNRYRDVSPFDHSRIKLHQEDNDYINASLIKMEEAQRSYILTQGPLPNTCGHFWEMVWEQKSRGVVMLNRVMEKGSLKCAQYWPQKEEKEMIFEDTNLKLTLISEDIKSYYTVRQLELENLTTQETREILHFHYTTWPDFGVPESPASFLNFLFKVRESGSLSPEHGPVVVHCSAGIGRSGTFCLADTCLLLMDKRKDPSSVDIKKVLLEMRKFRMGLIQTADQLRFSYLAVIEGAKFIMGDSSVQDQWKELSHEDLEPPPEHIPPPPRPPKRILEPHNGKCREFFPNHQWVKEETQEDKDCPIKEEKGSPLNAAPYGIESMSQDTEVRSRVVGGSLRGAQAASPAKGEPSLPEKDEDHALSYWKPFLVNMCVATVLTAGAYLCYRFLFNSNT
# Procedure, shortened: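 Read-out is continuous fluorescence of DiFMU (360 nm excitation, 450 nm emission) over about 15-30 minutes, with DiFMUP substrate at the enzyme's independently determined Km (PTPN2 approx. 45 μM final). Buffer: 50 mM HEPES pH 7.5, 150 mM NaCl, 0.5 mM EDTA, 1 mM DTT, 0.001% Tween-20, room temperature; initial rates versus 10-point dilution fitted for IC50, at least duplicate.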
SMILES,IC50 [1],IC50 [2]
"O=C1CN(c2c(O)ccc(-c3cc(N4CCC4)n[nH]3)c2F)S(=O)(=O)N1 [Compound 417, 5-(3-(3-(azetidin-1-yl)-1H-pyrazol-5-yl)-2-fluoro-6-hydroxyphenyl)-1,2,5-thiadiazolidin-3-one 1,1-dioxide]",≤ 1000 nM,≤ 1000 nM
"O=C1CN(c2c(O)ccc(C3=CCOC3)c2F)S(=O)(=O)N1 [Compound 291, 5-(3-(2,5-dihydrofuran-3-yl)-2-fluoro-6-hydroxyphenyl)-1,2,5-thiadiazolidin-3-one 1,1-dioxide]",≤ 1000 nM,≤ 1000 nM
"N=C(N)N1CC=C(c2ccc(O)c(N3CC(=O)NS3(=O)=O)c2F)C1 [Compound 502, 3-(3-(1,1-dioxido-4-oxo-1,2,5-thiadiazolidin-2-yl)-2-fluoro-4-hydroxyphenyl)-2,5-dihydro-1H-pyrrole-1-carboximidamide]",≤ 1000 nM,≤ 1000 nM
"CO[C@H]1CC[C@@H](n2cc(-c3ccc(O)c(N4CC(=O)NS4(=O)=O)c3F)cn2)CC1 [Compound 383, 5-(2-fluoro-6-hydroxy-3-(1-((1s,4s)-4-methoxycyclohexyl)-1H-pyrazol-4-yl)phenyl)-1,2,5-thiadiazolidin-3-one 1,1-dioxide]",≤ 1000 nM,≤ 1000 nM
"CCCCC1C=C(c2ccc(O)c(N3CC(=O)NS3(=O)=O)c2F)CN1 (stereo not shown) [Compound 523, 5-(3-(5-butyl-2,5-dihydro-1H-pyrrol-3-yl)-2-fluoro-6-hydroxyphenyl)-1,2,5-thiadiazolidin-3-one 1,1-dioxide]",≤ 1000 nM,≤ 1000 nM
"O=C1CN(c2c(O)ccc(-c3cc(C4CC4(F)F)no3)c2F)S(=O)(=O)N1 (stereo not shown) [Compound 490, 5-(3-(3-(2,2-difluorocyclopropyl)isoxazol-5-yl)-2-fluoro-6-hydroxyphenyl)-1,2,5-thiadiazolidin-3-one 1,1-dioxide]",≤ 1000 nM,≤ 1000 nM
"O=C1CN(c2c(O)ccc(C3=CC(COC(F)F)NC3)c2F)S(=O)(=O)N1 (stereo not shown) [Compound 480, 5-(3-(5-((difluoromethoxy)methyl)-2,5-dihydro-1H-pyrrol-3-yl)-2-fluoro-6-hydroxyphenyl)-1,2,5-thiadiazolidin-3-one 1,1-dioxide]",≤ 1000 nM,≤ 1000 nM
"N#CNC(=N)N1CC=C(c2ccc(O)c(N3CC(=O)NS3(=O)=O)c2F)C1 [Compound 476, N-cyano-3-(3-(1,1-dioxido-4-oxo-1,2,5-thiadiazolidin-2-yl)-2-fluoro-4-hydroxyphenyl)-2,5-dihydro-1H-pyrrole-1-carboximidamide]",≤ 1000 nM,≤ 1000 nM
"O=C1CN(c2c(O)ccc(-c3cnn(C(=O)NC4CC4)c3)c2F)S(=O)(=O)N1 [Compound 514, N-cyclopropyl-4-(3-(1,1-dioxido-4-oxo-1,2,5-thiadiazolidin-2-yl)-2-fluoro-4-hydroxyphenyl)-1H-pyrazole-1-carboxamide]",≤ 1000 nM,≤ 1000 nM
"O=C1CN(c2c(O)ccc(-c3cnn(S(=O)(=O)C4CC4)c3)c2F)S(=O)(=O)N1 [Compound 342, 5-(3-(1-(cyclopropylsulfonyl)-1H-pyrazol-4-yl)-2-fluoro-6-hydroxyphenyl)-1,2,5-thiadiazolidin-3-one 1,1-dioxide]",≤ 1000 nM,≤ 1000 nM
"O=C1CN(c2c(O)ccc(-c3cc(-c4ccccc4)no3)c2F)S(=O)(=O)N1 [Compound 401, 5-(2-fluoro-6-hydroxy-3-(3-phenylisoxazol-5-yl)phenyl)-1,2,5-thiadiazolidin-3-one 1,1-dioxide]",≤ 1000 nM,≤ 1000 nM

# Further lines, results first:
IC50 [1],IC50 [2],SMILES
≤ 1000 nM,≤ 1000 nM,"O=C1CN(c2c(O)ccc(-c3cc(C4CC4)n(CC(F)F)n3)c2F)S(=O)(=O)N1 [Compound 435, 5-(3-(5-cyclopropyl-1-(2,2-difluoroethyl)-1H-pyrazol-3-yl)-2-fluoro-6-hydroxyphenyl)-1,2,5-thiadiazolidin-3-one 1,1-dioxide]"
≤ 1000 nM,≤ 1000 nM,"CC(C)C1C=C(c2ccc(O)c(N3CC(=O)NS3(=O)=O)c2F)CN1 (stereo not shown) [Compound 482, 5-(2-fluoro-6-hydroxy-3-(5-isopropyl-2,5-dihydro-1H-pyrrol-3-yl)phenyl)-1,2,5-thiadiazolidin-3-one 1,1-dioxide]"
≤ 1000 nM,≤ 1000 nM,"O=C1CN(c2c(O)ccc(-c3c[nH]cn3)c2F)S(=O)(=O)N1 [Compound 158, 5-(2-fluoro-6-hydroxy-3-(1H-imidazol-4-yl)phenyl)-1,2,5-thiadiazolidin-3-one 1,1-dioxide]"
≤ 1000 nM,≤ 1000 nM,"CC(C)n1cc(-c2ccc(O)c(N3CC(=O)NS3(=O)=O)c2F)c(F)n1 [Compound 467, 5-(2-fluoro-3-(3-fluoro-1-isopropyl-1H-pyrazol-4-yl)-6-hydroxyphenyl)-1,2,5-thiadiazolidin-3-one 1,1-dioxide]"
≤ 1000 nM,≤ 1000 nM,"N#CCCc1cc(-c2ccc(O)c(N3CC(=O)NS3(=O)=O)c2F)n[nH]1 [Compound 373, 3-(3-(3-(1,1-dioxido-4-oxo-1,2,5-thiadiazolidin-2-yl)-2-fluoro-4-hydroxyphenyl)-1H-pyrazol-5-yl)propanenitrile]"
≤ 1000 nM,≤ 1000 nM,"O=C1CN(c2c(O)ccc(-c3cn(C4CC4)cn3)c2F)S(=O)(=O)N1 [Compound 176, 5-(3-(1-cyclopropyl-1H-imidazol-4-yl)-2-fluoro-6-hydroxyphenyl)-1,2,5-thiadiazolidin-3-one 1,1-dioxide]"
≤ 1000 nM,≤ 1000 nM,"O=C1CN(c2c(O)ccc(-c3cnn(C(F)(F)F)c3)c2F)S(=O)(=O)N1 [Compound 264, 5-(2-fluoro-6-hydroxy-3-(1-(trifluoromethyl)-1H-pyrazol-4-yl)phenyl)-1,2,5-thiadiazolidin-3-one 1,1-dioxide]"
≤ 1000 nM,≤ 1000 nM,"N#Cc1cc(-c2ccc(O)c(N3CC(=O)NS3(=O)=O)c2F)[nH]n1 [Compound 439, 5-(3-(1,1-dioxido-4-oxo-1,2,5-thiadiazolidin-2-yl)-2-fluoro-4-hydroxyphenyl)-1H-pyrazole-3-carbonitrile]"
≤ 1000 nM,≤ 1000 nM,"N#CCn1cc(-c2ccc(O)c(N3CC(=O)NS3(=O)=O)c2F)cn1 [Compound 130, 2-(4-(3-(1,1-dioxido-4-oxo-1,2,5-thiadiazolidin-2-yl)-2-fluoro-4-hydroxyphenyl)-1H-pyrazol-1-yl)acetonitrile]"
≤ 1000 nM,≤ 1000 nM,"O=C1CN(c2c(O)ccc(-c3cnn(CCO)c3)c2F)S(=O)(=O)N1 [Compound 140, 5-(2-fluoro-6-hydroxy-3-(1-(2-hydroxyethyl)-1H-pyrazol-4-yl)phenyl)-1,2,5-thiadiazolidin-3-one 1,1-dioxide]"
≤ 1000 nM,≤ 1000 nM,"O=C1CN(c2c(O)ccc(-c3cnn(C(F)(F)C(F)F)c3)c2F)S(=O)(=O)N1 [Compound 410, 5-(2-fluoro-6-hydroxy-3-(1-(1,1,2,2-tetrafluoroethyl)-1H-pyrazol-4-yl)phenyl)-1,2,5-thiadiazolidin-3-one 1,1-dioxide]"
≤ 1000 nM,≤ 1000 nM,"Cn1ccc(-c2cc(-c3ccc(O)c(N4CC(=O)NS4(=O)=O)c3F)[nH]n2)c1 [Compound 333, 5-(2-fluoro-6-hydroxy-3-(3-(1-methyl-1H-pyrrol-3-yl)-1H-pyrazol-5-yl)phenyl)-1,2,5-thiadiazolidin-3-one 1,1-dioxide]"
